For assay [1], the system named is Parkinson's disease. The conditions noted are these: cited from earlier work.
For assay [2], the system named is Parkinson's disease. As to the kind of experiment: Patient-reported tremor in a Parkinson's disease patient. Format: in vivo, human. The conditions noted are these: VIOXX 25 mg once a day added to Endo L-C 100-25 TID. The method, then:
Patient 8 (person one), an adult, was diagnosed as having Parkinson's disease. After evaluation the patient was prescribed Endo L-C 100-25, TID. Approximately three years later, the patient began taking VIOXX (25 mg) once a day. After three weeks, patient noticed that severity of tremors had decreased and the frequency between the tremors had increased. In addition, night time tremors, those associated with sleeping, had dramatically subsided (i.e. by up to 90%). Overall, the patient reports that the tremors have subsided nearly 40%.

Assay [3] deals with Parkinson's disease. Description: Unified Parkinson's Disease Rating Scale (UPDRS) Part III motor examination of a patient. Format: in vivo, human. The conditions noted are these: Patient 1. How it is done: Patent 1, a person, was administered Part III (motor examination) of the Unified Parkinson's Disease Rating Scale (hereinunder abbreviated as UPDRS) and diagnosed as having Parkinson=3 s disease (scoring a 20 in the test). After a period of evaluation of drug therapy options, the patient was prescribed pergolide, 0.25 mg tid and selegiline 5 mg po. After six (6) months on drug therapy, the patient was once again examined with the UPDRS motor subset and scored 16.5. After three (3) months on the drug, 25 mg of VIOXX, once a day was added to the treatment regime. After four (4) additional months, the patient was once again administered the UPDRS, this time scoring a 6.0. After six (6) months on the VIOXX tripartite therapy, the patient was again administered the UPDRS motor examination and scored 4.0. (see Fahn S, Elton R L, Members of the UPDRS Development Committee. Unified Parkinson's disease rating scale. In: Fahn S, Marsden C D, Calne D, Goldstein M, eds. Recent developments in Parkinson=3 s disease, Vol II. Florham Park, N.J.: Macmillan Healthcare Information, 1987:153-163, 293-304): […]

Bounds are passed on as bounds.

These results are taken from patent US20060154932A1, “Pharmaceutical compositions and method of treating parkinson's disease” (priority 2002, published 2006).

As for `NC12CC3CC(CC(C3)C1)C2` [Amantadine, amantadine], the “patients for whom useful in treating early, mild parkinsonism” value in assay [1] (100 to 300 mg/day po) was 50%.

For `C#CCN(C)[C@H](C)Cc1ccccc1` [Selegiline, selegiline], in assay [1] (used as initial treatment), the “delay of the initiation of levodopa” value is recorded as “about 1 yr”.

On to `CS(=O)(=O)c1ccc(C2=C(c3ccccc3)C(=O)OC2)cc1` [VIOXX, rofecoxib], for which, in assay [2] (Patient 8 (person one), after three weeks), the severity of tremors result was “decreased”. Further, in assay [2] (Patient 8), the “night time tremors (associated with sleeping) subsided” value was “up to 90%” and the “tremors subsided overall (patient report)” value is given as around 40%. Further, in assay [2] (Patient 8, after three weeks), the “frequency between the tremors” value is given as “increased”. The compound further gave a UPDRS score in assay [3] (25 mg VIOXX once a day added to pergolide and selegiline, after four additional months) of 6.0. Moreover, the “UPDRS motor examination score” value in assay [3] (after six months on the VIOXX tripartite therapy (VIOXX 25 mg once a day, pergolide, selegiline)) is given as 4.0.

On to `N[C@@H](Cc1ccc(O)c(O)c1)C(=O)O` [levodopa], for which the “patients beginning to experience fluctuations in their response (wearing off or on-off effect)” value in assay [1] (after 2 to 5 yr of treatment) was above 50%.
